Reference: patent US10681909B2, “Herbicidal triazoles” (FMC Corporation, priority 2014, dated 2020)

Columns and labels:
pigweed [1] = assay: Test A postemergence; format: in vivo, Amaranthus retroflexus; details: 0 to 100 scale (0 no effect, 100 complete control), approx. 10 d
Procedure, shortened: (§1)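 Pre- and postemergence spray tests in a loam soil–sand mixture: seeded soil received a directed spray, while established seedlings 2–10 cm high at the one- to two-leaf stage were treated over the top. Compounds were carried in non-phytotoxic solvent with surfactant.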

wheat [2] = assay: Test A preemergence; format: in vivo, Triticum aestivum; details: 0 to 100 scale (0 no effect, 100 complete control)
From the text: (§2) Seeds of plant species selected from barnyardgrass (Echinochloa crus-galli), crabgrass, large (large crabgrass, Digitaria sanguinalis), kochia (Kochia scoparia), ragweed (common ragweed, Ambrosia elatior), foxtail, giant (giant foxtail, Setaria faberii), morningglory (Ipomoea spp.), pigweed (Amaranthus retroflexus), velvetleaf (Abutilon theophrasti), ryegrass, Italian (Italian ryegrass, Lolium multiflorum), wheat (Triticum aestivum), and corn (Zea mays) were planted into a blend of loam soil and sand and treated preemergence with a directed soil spray using test chemicals formulated in a non-phytotoxic solvent mixture which included a surfactant. At the same time, plants selected from these crop and weed species and also blackgrass (Alopecurus myosuroides), and galium (catchweed bedstraw, Galium aparine), were planted in pots containing the same blend of loam soil and sand and treated with postemergence applications of test chemicals formulated in the same manner. Plants ranged in height from 2 to 10 cm and were in the one- to two-leaf stage for the postemergence treatment. […] A dash (-) response means no test result.

crabgrass, large [3] = assay: Test A preemergence; format: in vivo, Digitaria sanguinalis; details: 0 to 100 scale (0 no effect, 100 complete control)
From the text: as §2

corn [4] = assay: Test A postemergence; format: in vivo, Zea mays; details: 0 to 100 scale (0 no effect, 100 complete control), approx. 10 d
Procedure, shortened: as §1

corn [5] = assay: Test A preemergence; format: in vivo, Zea mays; details: 0 to 100 scale (0 no effect, 100 complete control)
From the text: as §2

pigweed [6] = assay: Test A preemergence; format: in vivo, Amaranthus retroflexus; details: 0 to 100 scale (0 no effect, 100 complete control)
Procedure, shortened: as §1

velvetleaf [7] = assay: Test A postemergence; format: in vivo, Abutilon theophrasti; details: 0 to 100 scale (0 no effect, 100 complete control), approx. 10 d
From the text: as §2

barnyardgrass [8] = assay: Test B flooded paddy test; format: in vivo, Echinochloa crus-galli; details: applied to paddy water at 2-leaf stage, visual rating after 13 to 15 d, scale 0 (no effect) to 100 (complete control)
From the text: (§3) At time of treatment, test pots were flooded to 3 cm above the soil surface, treated by application of test compounds directly to the paddy water, and then maintained at that water depth for the duration of the test. Treated plants and controls were maintained in a greenhouse for 13 to 15 d, after which time all species were compared to controls and visually evaluated. […] A dash (-) response means no test result.

sedge, umbrella = assay: Test B flooded paddy test; format: in vivo, Cyperus difformis; details: applied to paddy water at 2-leaf stage, visual rating after 13 to 15 d, scale 0 (no effect) to 100 (complete control)
From the text: as §3

wheat [9] = assay: Test A postemergence; format: in vivo, Triticum aestivum; details: 0 to 100 scale (0 no effect, 100 complete control), approx. 10 d
Procedure, shortened: as §1

velvetleaf [10] = assay: Test A preemergence; format: in vivo, Abutilon theophrasti; details: 0 to 100 scale (0 no effect, 100 complete control)
From the text: as §2

foxtail, giant [11] = assay: Test A preemergence; format: in vivo, Setaria faberii; details: 0 to 100 scale (0 no effect, 100 complete control)
Procedure, shortened: as §1

morningglory [12] = assay: Test A postemergence; format: in vivo, Ipomoea spp.; details: 0 to 100 scale (0 no effect, 100 complete control), approx. 10 d
From the text: as §2

ducksalad = assay: Test B flooded paddy test; format: in vivo, Heteranthera limosa; details: applied to paddy water at 2-leaf stage, visual rating after 13 to 15 d, scale 0 (no effect) to 100 (complete control)
From the text: as §3

crabgrass, large [13] = assay: Test A postemergence; format: in vivo, Digitaria sanguinalis; details: 0 to 100 scale (0 no effect, 100 complete control), approx. 10 d
From the text: as §2

barnyardgrass [14] = assay: Test A preemergence; format: in vivo, Echinochloa crus-galli; details: 0 to 100 scale (0 no effect, 100 complete control)
Procedure, shortened: as §1

barnyardgrass [15] = assay: Test A postemergence; format: in vivo, Echinochloa crus-galli; details: 0 to 100 scale (0 no effect, 100 complete control), approx. 10 d
Procedure, shortened: as §1

foxtail, giant [16] = assay: Test A postemergence; format: in vivo, Setaria faberii; details: 0 to 100 scale (0 no effect, 100 complete control), approx. 10 d
Procedure, shortened: as §1

morningglory [17] = assay: Test A preemergence; format: in vivo, Ipomoea spp.; details: 0 to 100 scale (0 no effect, 100 complete control)
From the text: as §2

rice = assay: Test B flooded paddy test; format: in vivo, Oryza sativa; details: applied to paddy water at 2-leaf stage, visual rating after 13 to 15 d, scale 0 (no effect) to 100 (complete control)
From the text: as §3

SMILES	Plant response rating, Pigweed (pigweed [1]; 125 g ai/ha)	Plant response rating, Pigweed (pigweed [1]; 500 g ai/ha)	Plant response rating, Wheat (wheat [2]; 125 g ai/ha)	Plant response rating, Wheat (wheat [2]; 500 g ai/ha, approx. 10 d)	Plant response rating, Crabgrass, Large (crabgrass, large [3]; 125 g ai/ha)	Plant response rating, Crabgrass, Large (crabgrass, large [3]; 500 g ai/ha, approx. 10 d)	Plant response rating, Corn (corn [4]; 125 g ai/ha)	Plant response rating, Corn (corn [4]; 500 g ai/ha)	Plant response rating, Corn (corn [5]; 125 g ai/ha)	Plant response rating, Corn (corn [5]; 500 g ai/ha, approx. 10 d)	Plant response rating, Pigweed (pigweed [6]; 125 g ai/ha)	Plant response rating, Pigweed (pigweed [6]; 500 g ai/ha, approx. 10 d)	Plant response rating, Velvetleaf (velvetleaf [7]; 125 g ai/ha)	Plant response rating, Velvetleaf (velvetleaf [7]; 500 g ai/ha)	Plant response rating, Wheat (wheat [9]; 125 g ai/ha)	Plant response rating, Wheat (wheat [9]; 500 g ai/ha)	Plant response rating, Velvetleaf (velvetleaf [10]; 125 g ai/ha)	Plant response rating, Velvetleaf (velvetleaf [10]; 500 g ai/ha, approx. 10 d)	Plant response rating, Foxtail, Giant (foxtail, giant [11]; 125 g ai/ha)	Plant response rating, Foxtail, Giant (foxtail, giant [11]; 500 g ai/ha, approx. 10 d)	other results
CCc1nc(-c2ccc(F)cc2)nn1Cc1ccnc(C(F)(F)F)c1 [Compound 2]	100	100	0	20	100	100	20	90	0	0	100	100	30	100	0	70	0	40	80	100	Plant response rating, Barnyardgrass, Flood (barnyardgrass [8]; 125 g ai/ha): 0; Plant response rating, Sedge, Umbrella, Flood (sedge, umbrella; 125 g ai/ha): 75; Plant response rating, Morningglory (morningglory [12]; 125 g ai/ha): 70; Plant response rating, Morningglory (morningglory [12]; 500 g ai/ha): 90; Plant response rating, Ducksalad, Flood (ducksalad; 125 g ai/ha): 30; Plant response rating, Crabgrass, Large (crabgrass, large [13]; 125 g ai/ha): 70; Plant response rating, Crabgrass, Large (crabgrass, large [13]; 500 g ai/ha): 100; Plant response rating, Barnyardgrass (barnyardgrass [14]; 125 g ai/ha): 0; Plant response rating, Barnyardgrass (barnyardgrass [14]; 500 g ai/ha, approx. 10 d): 80; Plant response rating, Barnyardgrass (barnyardgrass [15]; 125 g ai/ha): 20; Plant response rating, Barnyardgrass (barnyardgrass [15]; 500 g ai/ha): 90; Plant response rating, Foxtail, Giant (foxtail, giant [16]; 125 g ai/ha): 70; Plant response rating, Foxtail, Giant (foxtail, giant [16]; 500 g ai/ha): 90; Plant response rating, Morningglory (morningglory [17]; 125 g ai/ha): 0; Plant response rating, Morningglory (morningglory [17]; 500 g ai/ha, approx. 10 d): 60; Plant response rating, Rice, Flood (rice; 125 g ai/ha): 20
Cc1nc(-c2ccc(C(F)(F)F)cc2)nn1Cc1ccnc(C(F)(F)F)c1 [Compound 7]	100	100	0	10	90	100	30	50	10	10	90	100	80	100	20	50	20	70	80	100	Plant response rating, Barnyardgrass, Flood (barnyardgrass [8]; 250 g ai/ha): 0; Plant response rating, Sedge, Umbrella, Flood (sedge, umbrella; 250 g ai/ha): 85; Plant response rating, Morningglory (morningglory [12]; 125 g ai/ha): 50; Plant response rating, Morningglory (morningglory [12]; 500 g ai/ha): 80; Plant response rating, Ducksalad, Flood (ducksalad; 250 g ai/ha): 0; Plant response rating, Crabgrass, Large (crabgrass, large [13]; 125 g ai/ha): 50; Plant response rating, Crabgrass, Large (crabgrass, large [13]; 500 g ai/ha): 90; Plant response rating, Barnyardgrass (barnyardgrass [14]; 125 g ai/ha): 20; Plant response rating, Barnyardgrass (barnyardgrass [14]; 500 g ai/ha, approx. 10 d): 80; Plant response rating, Barnyardgrass (barnyardgrass [15]; 125 g ai/ha): 40; Plant response rating, Barnyardgrass (barnyardgrass [15]; 500 g ai/ha): 80; Plant response rating, Foxtail, Giant (foxtail, giant [16]; 125 g ai/ha): 60; Plant response rating, Foxtail, Giant (foxtail, giant [16]; 500 g ai/ha): 90; Plant response rating, Morningglory (morningglory [17]; 125 g ai/ha): 10; Plant response rating, Morningglory (morningglory [17]; 500 g ai/ha, approx. 10 d): 60; Plant response rating, Rice, Flood (rice; 250 g ai/ha): 0
CCCc1nc(-c2ccc(C(F)(F)F)cc2)nn1Cc1ccnc(C(F)(F)F)c1 [Compound 12]	100	100	10	30	100	100	20	40	0	20	100	100	70	100	30	40	70	70	100	100	Plant response rating, Barnyardgrass, Flood (barnyardgrass [8]; 125 g ai/ha): 0; Plant response rating, Sedge, Umbrella, Flood (sedge, umbrella; 125 g ai/ha): 0; Plant response rating, Morningglory (morningglory [12]; 125 g ai/ha): 70; Plant response rating, Morningglory (morningglory [12]; 500 g ai/ha): 100; Plant response rating, Ducksalad, Flood (ducksalad; 125 g ai/ha): 0; Plant response rating, Crabgrass, Large (crabgrass, large [13]; 125 g ai/ha): 50; Plant response rating, Crabgrass, Large (crabgrass, large [13]; 500 g ai/ha): 90; Plant response rating, Barnyardgrass (barnyardgrass [14]; 125 g ai/ha): 50; Plant response rating, Barnyardgrass (barnyardgrass [14]; 500 g ai/ha, approx. 10 d): 80; Plant response rating, Barnyardgrass (barnyardgrass [15]; 125 g ai/ha): 30; Plant response rating, Barnyardgrass (barnyardgrass [15]; 500 g ai/ha): 50; Plant response rating, Foxtail, Giant (foxtail, giant [16]; 125 g ai/ha): 70; Plant response rating, Foxtail, Giant (foxtail, giant [16]; 500 g ai/ha): 90; Plant response rating, Morningglory (morningglory [17]; 125 g ai/ha): 70; Plant response rating, Morningglory (morningglory [17]; 500 g ai/ha, approx. 10 d): 90; Plant response rating, Rice, Flood (rice; 125 g ai/ha): 0
